Assay results as given in patent US8076487B2, “Pyridone derivative and herbicide” (Kumiai Chemical Industry Co., Ltd., priority 2006, dated 2011).

Key:
Format in all cases: in vivo
[1] = tested on: Japanese bulrush (Scirpus juncoides Roxb.); test: Test Example 1: herbicidal effect by soil application to paddy field; settings: paddy field soil application; active ingredient 1,000 g per 1 hectare; wettable powder added dropwise to water surface the day after sowing; examined on the 21st day after application
In short: (§1)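 Plants were sown in flooded (3 cm) paddy soil and evaluated for herbicidal effect 21 days after soil application in a greenhouse.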

[2] = tested on: early watergrass (Echinochloa oryzicola Vasing); test: as above; settings: paddy field soil application; active ingredient 1,000 g per 1 hectare; wettable powder added dropwise to water surface the day after sowing; examined on the 21st day after application
In short: as §1

[3] = tested on: heartshape false pickerelweed (Monochoria vaginalis (Burm.f.) C.Presl); test: as above; settings: paddy field soil application; active ingredient 1,000 g per 1 hectare; wettable powder added dropwise to water surface the day after sowing; examined on the 21st day after application
In short: as §1

[4] = tested on: barnyardgrass (Echinochloa crus-galli (L.) P. Beauv. var. crus-galli); test: Test Example 2: herbicidal effect by soil application to upland field; settings: soil surface spray, upland field soil, 1,000 g active ingredient per hectare, 21st day after application
In short: (§2)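 After sowing and covering, the soil received an even aqueous spray of wettable powder at a rate of 1,000 g active ingredient/ha (1,000 L/ha). Ratings of herbicidal effect followed a standard scale 21 days post-treatment, with plants held in a greenhouse.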

[5] = tested on: green foxtail (Setaria viridis (L.) P. Beauv.); test: as above; settings: soil surface spray, upland field soil, 1,000 g active ingredient per hectare, 21st day after application
In short: as §2

[6] = tested on: slender amaranth (Amaranthus viridis L.); test: as above; settings: soil surface spray, upland field soil, 1,000 g active ingredient per hectare, 21st day after application
In short: as §2

[7] = tested on: velvetleaf (Abutilon theophrasti medicus); test: as above; settings: soil surface spray, upland field soil, 1,000 g active ingredient per hectare, 21st day after application
In short: as §2

[8] = tested on: barnyardgrass (Echinochloa crus-galli (L.) P. Beauv. var. crus-galli); test: Test Example 3: herbicidal effect by application to upland field (foliage treatment); settings: 14th day after application; for herbicidal effect (index), Barnyardgrass: foliage treatment, plants grown two weeks, 1,000 g active ingredient per hectare; for herbicidal effect, Barnyardgrass: foliage treatment, 1,000 g active ingredient per 1 hectare, greenhouse
In short: (§3)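 Greenhouse-grown plants, two weeks old in field soil, were treated by spraying their foliage with a water dilution of wettable powder. Rate: 1,000 g active ingredient in a 1,000 L/ha equivalent volume. Assessment followed at 14 days.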

[9] = tested on: green foxtail (Setaria viridis (L.) P. Beauv.); test: as above; settings: 14th day after application; for herbicidal effect (index), Green Foxtail: foliage treatment, plants grown two weeks, 1,000 g active ingredient per hectare; for herbicidal effect, Green Foxtail: foliage treatment, 1,000 g active ingredient per 1 hectare, greenhouse
In short: as §3

[10] = tested on: slender amaranth (Amaranthus viridis L.); test: as above; settings: 14th day after application; for herbicidal effect (index), Slender Amaranth: foliage treatment, plants grown two weeks, 1,000 g active ingredient per hectare; for herbicidal effect, Slender Amaranth: foliage treatment, 1,000 g active ingredient per 1 hectare, greenhouse
In short: as §3

[11] = tested on: velvetleaf (Abutilon theophrasti medicus); test: as above; settings: 14th day after application; for herbicidal effect (index), Velvetleaf: foliage treatment, plants grown two weeks, 1,000 g active ingredient per hectare; for herbicidal effect, Velvetleaf: foliage treatment, 1,000 g active ingredient per 1 hectare, greenhouse
In short: as §3

Row | SMILES | herbicidal effect, Scirpus juncoides Roxb. [1] | herbicidal effect, Echinochloa oryzicola Vasing [2] | herbicidal effect, Monochoria vaginalis (Burm. f.) C. Presl [3] | herbicidal effect (index), Barnyardgrass [4] | herbicidal effect (index), Green Foxtail [5] | herbicidal effect (index), Slender Amaranth [6] | herbicidal effect (index), Velvetleaf [7] | herbicidal effect (index), Barnyardgrass [8] | herbicidal effect (index), Green Foxtail [9] | herbicidal effect (index), Slender Amaranth [10] | herbicidal effect (index), Velvetleaf [11] | herbicidal effect, Barnyardgrass [8] | herbicidal effect, Green Foxtail [9] | herbicidal effect, Slender Amaranth [10] | herbicidal effect, Velvetleaf [11]
1 | O=C1CCCC(O)=C1C(=O)c1ccc(C(F)(F)F)n(CC(F)(F)F)c1=O [I-10] | 5 (90% or more of herbicidal effect and crop phytotoxicity) | 5 (90% or more of herbicidal effect and crop phytotoxicity) | 5 (90% or more of herbicidal effect and crop phytotoxicity) | 5 (90% or more of herbicidal effect and crop phytotoxicity) | 3 (50 to less than 70% of herbicidal effect and crop phytotoxicity) | 3 (50 to less than 70% of herbicidal effect and crop phytotoxicity) | 5 (90% or more of herbicidal effect and crop phytotoxicity) | 5 (90% or more of herbicidal effect and crop phytotoxicity) | 4 (70 to less than 90% of herbicidal effect and crop phytotoxicity) | 5 (90% or more of herbicidal effect and crop phytotoxicity) | 5 (90% or more of herbicidal effect and crop phytotoxicity) |  |  |  | 
2 | CCC(C)n1c(C(F)(F)F)ccc(C(=O)C2=C(O)CCCC2=O)c1=O (stereo not shown) [I-7] | 5 (90% or more of herbicidal effect and crop phytotoxicity) | 5 (90% or more of herbicidal effect and crop phytotoxicity) | 5 (90% or more of herbicidal effect and crop phytotoxicity) | 5 (90% or more of herbicidal effect and crop phytotoxicity) | 5 (90% or more of herbicidal effect and crop phytotoxicity) | 5 (90% or more of herbicidal effect and crop phytotoxicity) | 5 (90% or more of herbicidal effect and crop phytotoxicity) | 5 (90% or more of herbicidal effect and crop phytotoxicity) | 5 (90% or more of herbicidal effect and crop phytotoxicity) | 5 (90% or more of herbicidal effect and crop phytotoxicity) | 5 (90% or more of herbicidal effect and crop phytotoxicity) |  |  |  | 
3 | O=C1CCCC(O)=C1C(=O)c1ccc(C(F)(F)F)n(CC2CC2)c1=O [I-20] | 5 (90% or more of herbicidal effect and crop phytotoxicity) | 5 (90% or more of herbicidal effect and crop phytotoxicity) | 5 (90% or more of herbicidal effect and crop phytotoxicity) | 5 (90% or more of herbicidal effect and crop phytotoxicity) | 5 (90% or more of herbicidal effect and crop phytotoxicity) | 5 (90% or more of herbicidal effect and crop phytotoxicity) | 5 (90% or more of herbicidal effect and crop phytotoxicity) | 5 (90% or more of herbicidal effect and crop phytotoxicity) | 5 (90% or more of herbicidal effect and crop phytotoxicity) | 5 (90% or more of herbicidal effect and crop phytotoxicity) | 5 (90% or more of herbicidal effect and crop phytotoxicity) |  |  |  | 
4 | Cn1ncc(C(=O)c2ccc(C(F)(F)F)n(CC3CCOC3)c2=O)c1O (stereo not shown) [IV-143] | 5 (90% or more of herbicidal effect and crop phytotoxicity) | 5 (90% or more of herbicidal effect and crop phytotoxicity) | 5 (90% or more of herbicidal effect and crop phytotoxicity) | 5 (90% or more of herbicidal effect and crop phytotoxicity) | 5 (90% or more of herbicidal effect and crop phytotoxicity) | 5 (90% or more of herbicidal effect and crop phytotoxicity) | 5 (90% or more of herbicidal effect and crop phytotoxicity) |  |  |  |  | 5 (90% or more of herbicidal effect and crop phytotoxicity) | 5 (90% or more of herbicidal effect and crop phytotoxicity) | 5 (90% or more of herbicidal effect and crop phytotoxicity) | 5 (90% or more of herbicidal effect and crop phytotoxicity)
5 | Cn1ncc(C(=O)c2ccc(C(F)(F)F)n(-c3ccc4c(c3)OCCO4)c2=O)c1O [IV-101] | 5 (90% or more of herbicidal effect and crop phytotoxicity) | 5 (90% or more of herbicidal effect and crop phytotoxicity) | 5 (90% or more of herbicidal effect and crop phytotoxicity) | 5 (90% or more of herbicidal effect and crop phytotoxicity) | 4 (70 to less than 90% of herbicidal effect and crop phytotoxicity) | 5 (90% or more of herbicidal effect and crop phytotoxicity) | 4 (70 to less than 90% of herbicidal effect and crop phytotoxicity) |  |  |  |  | 5 (90% or more of herbicidal effect and crop phytotoxicity) | 3 (50 to less than 70% of herbicidal effect and crop phytotoxicity) | 4 (70 to less than 90% of herbicidal effect and crop phytotoxicity) | 4 (70 to less than 90% of herbicidal effect and crop phytotoxicity)
6 | CC(C)Cn1c(C(F)(F)F)ccc(C(=O)C2=C(O)CCCC2=O)c1=O [I-6] | 5 (90% or more of herbicidal effect and crop phytotoxicity) | 5 (90% or more of herbicidal effect and crop phytotoxicity) | 5 (90% or more of herbicidal effect and crop phytotoxicity) | 5 (90% or more of herbicidal effect and crop phytotoxicity) | 5 (90% or more of herbicidal effect and crop phytotoxicity) | 5 (90% or more of herbicidal effect and crop phytotoxicity) | 5 (90% or more of herbicidal effect and crop phytotoxicity) | 5 (90% or more of herbicidal effect and crop phytotoxicity) | 5 (90% or more of herbicidal effect and crop phytotoxicity) | 5 (90% or more of herbicidal effect and crop phytotoxicity) | 5 (90% or more of herbicidal effect and crop phytotoxicity) |  |  |  | 
7 | COC(=O)N(C)n1c(C(F)(F)F)ccc(C(=O)C2=C(O)CCCC2=O)c1=O [I-190] | 5 (90% or more of herbicidal effect and crop phytotoxicity) | 5 (90% or more of herbicidal effect and crop phytotoxicity) | 5 (90% or more of herbicidal effect and crop phytotoxicity) | 5 (90% or more of herbicidal effect and crop phytotoxicity) | 4 (70 to less than 90% of herbicidal effect and crop phytotoxicity) | 5 (90% or more of herbicidal effect and crop phytotoxicity) | 5 (90% or more of herbicidal effect and crop phytotoxicity) |  |  |  |  | 5 (90% or more of herbicidal effect and crop phytotoxicity) | 5 (90% or more of herbicidal effect and crop phytotoxicity) | 5 (90% or more of herbicidal effect and crop phytotoxicity) | 5 (90% or more of herbicidal effect and crop phytotoxicity)
8 | CC1(C)CCC(O)=C(C(=O)c2ccc(C(F)(F)F)n(-c3cc(F)cc(F)c3)c2=O)C1=O [II-40] | 5 (90% or more of herbicidal effect and crop phytotoxicity) | 5 (90% or more of herbicidal effect and crop phytotoxicity) | 5 (90% or more of herbicidal effect and crop phytotoxicity) | 5 (90% or more of herbicidal effect and crop phytotoxicity) | 5 (90% or more of herbicidal effect and crop phytotoxicity) | 5 (90% or more of herbicidal effect and crop phytotoxicity) | 5 (90% or more of herbicidal effect and crop phytotoxicity) |  |  |  |  | 5 (90% or more of herbicidal effect and crop phytotoxicity) | 4 (70 to less than 90% of herbicidal effect and crop phytotoxicity) | 5 (90% or more of herbicidal effect and crop phytotoxicity) | 5 (90% or more of herbicidal effect and crop phytotoxicity)
